Experimental findings from ChEMBL document CHEMBL2062379, “Cleavage mechanism and anti-tumor activity of 3,6-epidioxy-1,10-bisaboladiene isolated from edible wild plants” (Bioorg Med Chem, 2012) are described below.

For one data set, the system named is ACHN. Briefly: Growth inhibition of human ACHN cells. The format is functional.
Data set [1] has as its system HL-60. Kind of data set: Induction of apoptosis in human HL60 cells assessed as caspase 9 activation after 1 to 3 hrs by spectrophotometric analysis. It is filed as functional, cell-based.
The next data set has as its system NCI-H23. Kind of data set: Growth inhibition of human NCI-H23 cells. It is filed as functional.
A further data set concerns DMS-273. Kind of data set: Growth inhibition of human DMS273 cells. The format is functional.
The test system of data set [2] is HL-60. Briefly: Cytotoxicity against human HL60 cells after 48 hrs by MTT assay. The format is functional, cell-based. The note with it: HL-60, 48 h. Background: Tetrazolium assays rely on reduction of a dye to a coloured formazan, in cell work by metabolically active cells.
For the next data set, the system named is PC-3. Kind of data set: Growth inhibition of human PC3 cells. The format is functional.
Data set [3] deals with HL-60. Briefly: Ratio of IC50 for human HL60 cells in presence of DFOM to IC50 for human HL60 cells in absence of DFOM. The format is functional.
Data set [4] can be described thus: Growth inhibition of human RXF631L cells. It is filed as functional. The note with it: RXF 631.
A further data set relates to SF-268. Briefly: Growth inhibition of human SF268 cells. It is filed as functional.
The next data set relates to OVCAR-3. Briefly: Growth inhibition of human OVCAR3 cells. It is filed as functional.
In data set [5] the test system is HL-60. Briefly: Induction of apoptosis in human HL60 cells assessed as caspase 8 activation after 1 to 3 hrs by spectrophotometric analysis. It is filed as functional, cell-based.
Data set [6] can be described thus: Growth inhibition of human HBC4 cells. It is filed as functional.
In the next data set the test system is KM12. Briefly: Growth inhibition of human KM12 cells. It is filed as functional.
Another data set deals with HCT-15. Briefly: Growth inhibition of human HCT15 cells. The format is functional.
In the next data set the test system is SNB-75. Kind of data set: Growth inhibition of human SNB75 cells. The format is functional.
The subject of data set [7] is Saccharomyces cerevisiae. Briefly: Growth restoration activity in cdc2-1 rad9-deficient Saccharomyces cerevisiae assessed as growth zone at 12.5 to 400 ug/disc incubated at 37 degC for 6 hrs and 28 degC for 2 days. The format is functional, organism-based.
A further data set deals with MKN-28. Briefly: Growth inhibition of human MKN28 cells. The format is functional.
The test system of the next data set is SK-OV-3. Briefly: Growth inhibition of human SKOV3 cells. The format is functional.
The next data set has as its system HCT-116. Briefly: Growth inhibition of human HCT116 cells. The format is functional.
Data set [8] has as its system HL-60. Kind of data set: Cytotoxicity against human HL60 cells after 48 hrs by MTT assay in absence of DFOM. Particulars: HL-60, 48 h. It is filed as functional, cell-based.
In the next data set the test system is SF-295. Briefly: Growth inhibition of human SF295 cells. It is filed as functional.
The subject of a further data set is HCC 2998. Briefly: Growth inhibition of human HCC2998 cells. The format is functional.
Data set [9] concerns HL-60. Kind of data set: Cytotoxicity against human HL60 cells after 48 hrs by MTT assay in presence of DFOM. It is filed as functional, cell-based. Particulars: HL-60, 48 h.
The next data set relates to MDA-MB-231. Kind of data set: Growth inhibition of human MDA-MB-231 cells. The format is functional.
For the next data set, the system named is MKN-74. Briefly: Growth inhibition of human MKN74 cells. It is filed as functional.
The nature of data set [10]: Growth inhibition of human MKN1 cells. The note with it: MKN-1. The format is functional.
Data set [11] concerns HL-60. Briefly: Induction of apoptosis in human HL60 cells assessed as caspase 8 activation at 1 uM after 12 hrs by spectrophotometric analysis. It is filed as functional, cell-based.
In another data set the test system is DMS-114. Kind of data set: Growth inhibition of human DMS114 cells. It is filed as functional.
The next data set deals with MKN-7. Kind of data set: Growth inhibition of human MKN7 cells. The format is functional.
In a further data set the test system is NCI-H226. Kind of data set: Growth inhibition of human NCI-H226 cells. The format is functional.
A further data set has as its system OVCAR-4. Briefly: Growth inhibition of human OVCAR4 cells. The format is functional.
The test system of another data set is MKN-45. Briefly: Growth inhibition of human MKN45 cells. It is filed as functional.
For data set [12], the system named is HL-60. Briefly: Induction of apoptosis in human HL60 cells assessed as caspase 9 activation at 1 uM after 12 hrs by spectrophotometric analysis. It is filed as functional, cell-based.
The next data set has as its system St-4. Kind of data set: Growth inhibition of human St-4 cells. The format is functional.
A further data set concerns SF-539. Kind of data set: Growth inhibition of human SF539 cells. The format is functional.
Data set [13] in a line: Growth inhibition of human HBC5 cells. It is filed as functional.
Another data set has as its system MCF7. Briefly: Growth inhibition of human MCF7 cells. It is filed as functional.
A further data set relates to NCI-H460. Briefly: Growth inhibition of human NCI-H460 cells. The format is functional.
A further data set concerns LOX IMVI. Briefly: Growth inhibition of human LOXIMVI cells. It is filed as functional.
In another data set the test system is A549. Briefly: Growth inhibition of human A549 cells. The format is functional.
The test system of another data set is NCI-H522. Briefly: Growth inhibition of human NCI-H522 cells. The format is functional.
In the next data set the test system is HT-29. Briefly: Growth inhibition of human HT-29 cells. It is filed as functional.
A short description of data set [14]: Growth inhibition of human BSY1 cells. The format is functional. The note with it: BSY-1.
Data set [15] relates to HL-60. Briefly: Induction of apoptosis in human HL60 cells assessed as caspase 3/7 activation after 1 to 3 hrs by spectrophotometric analysis. The format is functional, cell-based.
Data set [16] relates to HL-60. Briefly: Induction of apoptosis in human HL60 cells assessed as caspase 3/7 activation at 1 uM after 12 hrs by spectrophotometric analysis. It is filed as functional, cell-based.
The test system of data set [17] is Saccharomyces cerevisiae. Kind of data set: Growth restoration activity in cdc2-1 rad9-deficient Saccharomyces cerevisiae assessed as growth zone at 400 ug/disc. The format is functional, organism-based.
Another data set deals with OVCAR-8. Briefly: Growth inhibition of human OVCAR8 cells. It is filed as functional.
The next data set concerns OVCAR-5. Briefly: Growth inhibition of human OVCAR5 cells. The format is functional.
In the next data set the test system is U-251. Briefly: Growth inhibition of human U251 cells. The format is functional.
The test system of another data set is SNB-78. Kind of data set: Growth inhibition of human SNB78 cells. It is filed as functional.
Another data set concerns DU-145. Kind of data set: Growth inhibition of human DU145 cells. The format is functional.
In data set [18] the test system is Saccharomyces cerevisiae. Briefly: Growth restoration activity in cdc2-1 rad9-deficient Saccharomyces cerevisiae assessed as growth zone at 5 ug/disc incubated at 37 degC for 6 hrs and 28 degC for 2 days. The format is functional, organism-based.
Data set [19] relates to HL-60. Briefly: Cytotoxicity against human HL60 cells at 80 uM after 48 hrs by MTT assay. The format is functional, cell-based.
Data set [20] relates to Saccharomyces cerevisiae. Kind of data set: Growth restoration activity in cdc2-1 rad9-deficient Saccharomyces cerevisiae assessed as growth zone at 10 ug/disc incubated at 37 degC for 6 hrs and 28 degC for 2 days. The format is functional.
The subject of data set [21] is Saccharomyces cerevisiae. Kind of data set: Growth restoration activity in cdc2-1 rad9-deficient Saccharomyces cerevisiae assessed as growth zone at 0.05 ug/disc incubated at 37 degC for 6 hrs and 28 degC for 2 days. The format is functional.
For data set [22], the system named is HL-60. Briefly: Induction of apoptosis in human HL60 cells assessed as caspase 9 activation at 200 uM after 1 hrs by spectrophotometric analysis. It is filed as functional, cell-based.
Data set [23] concerns HL-60. Kind of data set: Induction of apoptosis in human HL60 cells assessed as caspase 3/7 activation at 200 uM after 1 hrs by spectrophotometric analysis. It is filed as functional, cell-based.
For data set [24], the system named is HL-60. Kind of data set: Induction of apoptosis in human HL60 cells assessed as caspase 8 activation at 200 uM after 1 hrs by spectrophotometric analysis. The format is functional, cell-based.
Data set [25] in a line: Drug metabolism in buffer at pH 8 after 24 hrs by HPLC analysis in presence of […]. The format is physicochemical. The note with it: pH 8, 24 h.

Each structure is given as a SMILES string. The source made the active and inactive calls. The rule behind the calls is not given here. Bounds are passed on as bounds.

As usually defined, the GI50 is the concentration giving 50% growth inhibition. For orientation: IC50 means the point on the concentration scale where inhibition reaches its midpoint. As to `C[C@H]1[C@@H](O)O[C@@H]2O[C@@]3(C)CC[C@H]4[C@H](C)CC[C@@H]1[C@@]24OO3` [ARTENIMOL], the GI50 in the data set on ACHN is 7.08 µM; with NCI-H23, 6.17 µM; with DMS-273, 4.47 µM; in the data set on PC-3, 3.16 µM; in data set [4] it was 25.7 µM; in the data set with SF-268, 20.9 µM. Moreover, the GI50 in the data set with OVCAR-3 was 10.2 µM; in data set [6], 2.04 µM; in the data set on KM12 it was 6.03 µM; with HCT-15 it was 0.912 µM; in the data set on SNB-75 it was 11.7 µM; in the data set on MKN-28 it was 4.57 µM. Further, the GI50 in the data set on SK-OV-3 is 10.2 µM; in the data set on HCT-116, 1.35 µM; in the data set with SF-295, 15.5 µM; in the data set on HCC 2998, 14.8 µM; in the data set with MDA-MB-231 it was 19.1 µM; in the data set with MKN-74, 3.98 µM. The GI50 in data set [10] is 3.89 µM; in the data set on DMS-114, 1.58 µM; with MKN-7, 3.02 µM; in the data set with NCI-H226 it was 15.8 µM; in the data set with OVCAR-4, 12.9 µM; in the data set on MKN-45, 5.25 µM. Also, the GI50 in the data set with St-4 was 5.37 µM; in the data set with SF-539, 9.77 µM; in [13] it was 5.37 µM; in the data set with MCF7, 6.17 µM; in the data set with NCI-H460, 7.41 µM; in the data set with LOX IMVI, 3.16 µM. Besides, the GI50 in the data set with A549 is 15.5 µM; with NCI-H522, 2.29 µM; in the data set on HT-29, 4.37 µM; in data set [14], 11.2 µM; in the data set with OVCAR-8, 4.17 µM; in the data set on OVCAR-5, 12.9 µM. The results for the GI50 with U-251, with SNB-78 and with DU-145 were 3.31 µM, 8.32 µM and 18.6 µM, respectively. The Activity result with HL-60 [1], in the data set with HL-60 [5] and in the data set with HL-60 [15] was “Dose-dependent effect” throughout. Also, the figures for the IC50 with HL-60 [2], in the data set on HL-60 [8] and in the data set with HL-60 [9] were 0.26 µM, 0.18 µM and > 20 µM, respectively. For the same compound, the “Ratio IC50” value in the data set on HL-60 [3] is recorded as >100. For the same compound, the result in the data set with Saccharomyces cerevisiae [7] and in the data set with Saccharomyces cerevisiae [17] was inactive. The result in the data set on HL-60 [11], in the data set with HL-60 [12] and with HL-60 [16] was Active.
For the compound `CC(C)=CCCC(C)[C@@]12CC[C@]3(C)O[C@@H]3[C@@H]1O2` (relative stereo), the result in the data set with Saccharomyces cerevisiae [18] and in the data set with HL-60 [19] was inactive.
Consider `NC(=O)NO` [HYDROXYUREA], for which the Activity in the data set with Saccharomyces cerevisiae [20] was found to be 14.3 mm.
Turning to `COc1c(C)c2c(c(O)c1C/C=C(\C)CCC(=O)O)C(=O)OC2` [MYCOPHENOLIC ACID], the Activity in the data set with Saccharomyces cerevisiae [21] amounted to 18.5 mm.
For `CC(C)=CCC[C@@H](C)c1ccc(C)cc1`, the figures for the IC50 with HL-60 [2], in the data set with HL-60 [8] and with HL-60 [9] were 109 µM, 107 µM and 147 µM, respectively. Moreover, the outcome in the data set on HL-60 [22], in the data set with HL-60 [23] and in the data set with HL-60 [24] was Active. In addition, the result in the data set on Saccharomyces cerevisiae [17] was inactive. Besides, the Drug metabolism entry in data set [25] was “Not Active”.
